Values after ≈ are worked out from the molar mass of the structure shown.

Broadly, the EC50 is the concentration needed to bring the measured effect to its halfway point.

The test system of this experiment is Human immunodeficiency virus 1. The experiment in a line: Antiviral activity against HIV1 assessed as protection against virus-induced cytopathogenicity. It is filed as functional, organism-based. (Damage to the host cells serves as the signal in cytopathic effect assays.)

Turning to `C=C(C)[C@H](CC=C(C)C)C[C@@]12C[C@@H](CC=C(C)C)C(C)(C)[C@@](CC=C(C)C)(C(=O)C(C(=O)c3ccc(O)c(O)c3)=C1O)C2=O` [GUTTIFERONE F], the half-maximal effective concentration (EC50) was determined as 23 µg/mL (≈ 38.2 µM).

For the origin of these results see ChEMBL document CHEMBL1157996, “Guttiferone F, the first prenylated benzophenone from Allanblackia stuhlmannii” (J Nat Prod, 1999).
